# In patent publication US12612403B2, “Nitrogen-containing heterocyclic derivative inhibitor, and preparation method therefor and use thereof” (SHANGHAI HANSOH BIOMEDICAL CO., LTD., priority 2024, dated 2026):
# How the values were obtained:
# [1] = tested on: hyperlipidemia animal model of B6-hPCSK9 transgenic mice; experiment: In vivo pharmacodynamic study in hyperlipidemia model of B6-hPCSK9 transgenic mice (LDL-C, TC, plasma PCSK9); set-up: species or system B6-hPCSK9 transgenic C57 mice; details: PO administration, 10 mpk, Day 14, B6-hPCSK9 transgenic mice on high-fat feed, normalized to vehicle group
# Description: 1. Experimental objective: The compounds of the present disclosure were evaluated for in vivo pharmacodynamics in a hyperlipidemia animal model of B6-hPCSK9 transgenic mice.
# 2.1 Animals: B6-hPCSK9 transgenic C57 mice, 6-8 weeks old, male, purchased from Jiangsu GemPharmatech Co., Ltd.
# 2.2 Animal model: After delivery to a barrier system, the animals were given one week for acclimatization and began to feed on the high-fat feed. The body weight and feed weight were weighed once a week, and the body weight and food intake thereof were recorded.
# 2.3 Grouping and administration • a. The animals were grouped by a random grouping method. • c. According to the grouping results, administration with the test drug was started (mode of administration: oral administration; administration volume: 10 mL/kg; frequency of administration: once/day or single administration; administration cycle: 21 days; vehicle: 10% Solutol HS 15/90% Saline). Test drug: Compounds of the present disclosure, made in house. • d. After the test drug was administered, the body weight and feed weight were weighed twice a week and blood was taken once a week. • e. The data was processed with software such as Excel. […] PCSK9 in plasma was detected by ELISA.
# [2] = Pharmacokinetic determination in mice (PO 5 mg/kg, IV 1 mg/kg); assay type: in vivo, C57BL/6J mice; details: male, C57BL/6J, mouse, plasma, C57 mice, PO administration, 5 mpk; for AUC(0-inf): read-out: Area under the curve AUC0-∞; for half-life: read-out: Half-life t1/2 (converted); for MRT: read-out: Mean residence time MRT; for Cmax: read-out: Plasma concentration Cmax; for Tmax: read-out: Time to peak tmax
# Summary of the method: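 Fasted male C57BL/6J mice (n=3 per route) dosed PO 5 mg/kg in 10% Solutol HS15 or IV 1 mg/kg in 5% DMSO/10% Solutol HS15/85% PBS. Orbital blood sampled 0.083 (IV) to 24 h; plasma measured by LC-MS/MS, parameters by WinNonlin.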
Compound,"LDL-C change vs vehicle (%), Day 14 [1] [%]",AUC(0-inf) [2] [ng·h/mL],half-life [2] [h],MRT [2] [h],Cmax [2] [ng/mL],Tmax [2] [h]
"O=c1nc(O)ccn1-c1ccc(N[C@H]2CC[C@H](Nc3nc4cc(C(F)(F)F)ccn4n3)C2)nc1 [Example 78, 4-hydroxy-1-(6-(((1S,3S)-3-((7-(trifluoromethyl)-[1,2,4]triazolo[1,5-a]pyridin-2-yl)amino)cyclopentyl)amino)pyridin-3-yl)pyrimidin-2(1H)-one]",−37.98,14000,3.6,1.7,7860,0.25
O=C1c2ncccc2CN1c1cnc(N[C@H]2CC[C@H](Nc3nc4cc(OC(F)F)ccn4n3)C2)c(F)c1 [Example 151],−31.09,11300,1.4,2.3,3460,0.5
O=c1nc(O)ccn1-c1cnc(N[C@H]2CC[C@H](Nc3nc4cc(C(F)(F)F)ccn4n3)C2)c(F)c1 [Example 183],−48.90,26700,3,3.5,6130,0.7
